Measured values published in patent US11938189B2, “Compositions and methods for stabilizing protein-containing formulations” (Genentech, Inc., priority 2010, dated 2024).
One block for each compound: values may come before it.

Key:
[1] = test system: anti-MUC16 monoclonal antibody; experiment: Shaking-induced aggregation (150 rpm), percent monomer by size-exclusion chromatography; assay type: physicochemical; settings: surfactant at one half of its CMC; shaking 150 rpm, 37° C., 64 hours; FIG. 1
Method: (§1) In this set of studies, a buffered solution (20 mM sodium phosphate buffer, pH 7.4) of monoclonal antibody was subjected to shaking on an orbital shaker at 150 rpm, at a controlled temperature of 37° C. These studies were carried out using a 3 ml solution fill of the antibody solution in a 6 cc glass vial. Samples were withdrawn at regular intervals and analyzed for percent monomer using size-exclusion chromatography. Various surfactants of the class of alkylglycosides were evaluated for their effectiveness to prevent protein aggregation during shaking. The surfactants were used at concentrations below their respective critical micelle concentration (CMC) or above their respective CMC.
The surfactants were employed at one half the concentration of their respective CMC values, i.e., 1.1 mM (0.035% w/v) n-decyl-β-D-glucopyranoside, 9 mM (0.24%) n-octyl-β-D-glucopyranoside and 0.04 mM (0.0035%) polysorbate 20.

[2] = test system: anti-MUC16 monoclonal antibody; experiment: Stirring-induced aggregation (500 rpm), turbidity; assay type: physicochemical; settings: surfactant at one-tenth of its CMC; stirring 500 rpm, ambient temperature, 90 minutes; FIG. 2
Method: In this set of studies, a Tefloncoated magnetic stir bar was used to induce agitation in a buffered solution (20 mM histidine-acetate, pH 5.5) of monoclonal antibody. 3 ml of the antibody solution was filled in a 6 cc glass vial and the solution was stirred at 500 rpm using a Teflon-coated stir bar. The solution was stirred for a period of 90 minutes and samples were withdrawn at regular intervals and analyzed for turbidity as an indication of formation of insoluble aggregates. Various surfactants of the class of alkylglycosides were evaluated for their effectiveness to prevent protein aggregation during shaking. The surfactants were used at concentrations below their respective critical micelle concentration (CMC) or above their respective CMC.
FIGS. 2 and 3 show the time-course of turbidity formation in a solution of the anti-MUC16 monoclonal antibody following stirring at 500 rpm using a Teflon-coated magnetic bar at ambient temperature for a period of 90 minutes. Turbidity was evaluated in solutions containing no surfactant as well as in solutions containing different alkylglycoside surfactants or polysorbate 20. […]

[3] = test system: anti-MUC16 monoclonal antibody; experiment: Shaking at 300 rpm, turbidity of antibody formulation; assay type: physicochemical; settings: shaking 300 rpm, 72 hours, 37° C.
Method: as §1
In FIG. 4, the effect of varying the concentration of n-octyl-β-D-glucopyranoside on the turbidity of anti-MUC16 monoclonal antibody formulations during shaking at 300 rpm for 72 hours at 37° C. was investigated.
(§2) In FIGS. 6-9, the effect of 0.23 mM (0.02% w/v) polysorbate 20 or 3.6 mM (0.1% w/v) n-octyl-β-D-glucopyranoside on the turbidity of aqueous formulations of an anti-MUC16 monoclonal antibody (FIG. 6), an anti-IgE monoclonal antibody (FIG. 7), an anti-CD11a monoclonal antibody (FIG. 8), and an anti-CD22 monoclonal antibody (FIG. 9), during shaking at 300 rpm for 72 hours at 37° C. was investigated.

[4] = test system: anti-CD11a monoclonal antibody; experiment: as above; assay type: physicochemical; settings: 0.23 mM (0.02% w/v) polysorbate 20 or 3.6 mM (0.1% w/v) n-octyl-β-D-glucopyranoside; shaking 300 rpm, 72 hours, 37° C.; FIG. 8
Method: as §1, §2

[5] = test system: anti-CD22 monoclonal antibody; experiment: as above; assay type: physicochemical; settings: 0.23 mM (0.02% w/v) polysorbate 20 or 3.6 mM (0.1% w/v) n-octyl-β-D-glucopyranoside; shaking 300 rpm, 72 hours, 37° C.; FIG. 9
Method: as §1, §2

[6] = test system: anti-IgE monoclonal antibody; experiment: as above; assay type: physicochemical; settings: 0.23 mM (0.02% w/v) polysorbate 20 or 3.6 mM (0.1% w/v) n-octyl-β-D-glucopyranoside; shaking 300 rpm, 72 hours, 37° C.; FIG. 7
Method: as §1, §2

[7] = test system: anti-MUC16 monoclonal antibody; experiment: Shaking at 300 rpm, percent monomer of antibody; assay type: physicochemical; settings: shaking 300 rpm, 72 hours, 37° C.
Method: as §1
In FIG. 5, the effect of varying the concentration of n-octyl-β-D-glucopyranoside on the percent monomer of the anti-MUC16 monoclonal antibody in solution, following shaking at 300 rpm at 37° C. for 72 hours was investigated.
as §2, with “10-13,” for “6-9,”, “percent monomer” for “turbidity”, “10),” for “6),”, “11),” for “7),”, “12),” for “8),”, “13),” for “9),”

[8] = test system: anti-CD11a monoclonal antibody; experiment: Shaking at 300 rpm, percent monomer of antibody; assay type: physicochemical; settings: 3.6 mM (0.1% w/v); shaking 300 rpm, 72 hours, 37° C.; FIG. 12
Method: as §1
as §2, with “10-13,” for “6-9,”, “percent monomer” for “turbidity”, “10),” for “6),”, “11),” for “7),”, “12),” for “8),”, “13),” for “9),”

[9] = test system: anti-CD22 monoclonal antibody; experiment: Shaking at 300 rpm, percent monomer of antibody; assay type: physicochemical; settings: 3.6 mM (0.1% w/v); shaking 300 rpm, 72 hours, 37° C.; FIG. 13
Method: as §1
as §2, with “10-13,” for “6-9,”, “percent monomer” for “turbidity”, “10),” for “6),”, “11),” for “7),”, “12),” for “8),”, “13),” for “9),”

[10] = test system: anti-IgE monoclonal antibody; experiment: Shaking at 300 rpm, percent monomer of antibody; assay type: physicochemical; settings: 3.6 mM (0.1% w/v); shaking 300 rpm, 72 hours, 37° C.; FIG. 11
Method: as §1
as §2, with “10-13,” for “6-9,”, “percent monomer” for “turbidity”, “10),” for “6),”, “11),” for “7),”, “12),” for “8),”, “13),” for “9),”

[11] = test system: anti-CD11a monoclonal antibody; experiment: Oxidation of Met256 on storage in surfactant-containing antibody solution; assay type: physicochemical; settings: 0.1% w/v surfactant, FIG. 15
Method: In a second experiment, oxidation of the Met256 amino acid residue in an anti-CD11a monoclonal antibody in solutions containing either n-decyl-β-D-glucopyranoside, n-octyl-β-D-glucopyranoside, or polysorbate 20 was evaluated. For this purpose, 3 ml of the buffered antibody solution (pH 6.0) containing 0.1% w/v of the surfactant was stored in 6 cc vials at either 5° C. or 40° C. for a period of either 2 or 4 weeks.

[12] = test system: anti-CD22 monoclonal antibody; experiment: Fenton reagent-induced oxidation of Met and Trp residues (phenyl RP-HPLC); assay type: physicochemical; settings: 3.6 mM (0.1% w/v); 0.1 ppm Fe3+ and 1 ppm hydrogen peroxide, 2 or 4 weeks at 40° C., pH 5.5; compared with 0.23 mM polysorbate 20 and no surfactant; FIG. 16
Method: In a third experiment, Fenton reagent-induced oxidation of Met and Trp amino acid residues (i.e., amino acids known to be susceptible to oxidation) in an anti-CD22 monoclonal antibody was analyzed. Specifically, buffered (20 mM histidine acetate, pH 5.5) solutions of anti-CD22 monoclonal antibody containing 0.1 ppm Fe^3+ and 1 ppm hydrogen peroxide were prepared and stored for either 2 or 4 weeks at 40° C., either in the absence of surfactant or in the presence of 0.23 mM (0.02% w/v) polysorbate 20 or 3.6 mM (0.1% w/v) n-octyl-β-D-glucopyranoside. samples were then withdrawn and percent oxidation of Met and Trp residues was determined from the percent early peaks of the antibody eluting through a phenyl RP-HPLC column.

[13] = in water at 20-25° C.; cited from earlier work
[14] = Hydrogen peroxide formation in stored surfactant solutions (Amplex Red Hydrogen Peroxide assay); assay type: physicochemical; settings: 0.1% w/v surfactant in water, stored at 40° C. for one month; FIG. 14
Method: In a first experiment, solutions of surfactants of the class of alkylglycosides, i.e., n-decyl-β-D-glucopyranoside, n-octyl-β-D-glucopyranoside, and n-decyl-β-D-maltopyranoside, as well as polysorbate 20 at a concentration of 0.1% w/v in water were stored at 40° C. for a period of one month. Samples were then withdrawn and analyzed for the presence of hydrogen peroxide using the Amplex Red Hydrogen Peroxide assay. the results of these analyses are shown in FIG. 14.

[15] = test system: Humanized anti-oxidized LDL monoclonal antibody; experiment: Light-induced oxidation of tryptophan residues (LC/MS/MS tryptic peptide map); assay type: physicochemical; settings: Light 24 hrs; 0.02% surfactant
Method: MAb samples and light treatment: Humanized anti-oxidized LDL monoclonal antibody, was produced at Genentech, Inc. from a CHO cell line. Three independent samples were prepared for photostability studies: 1) control sample, vial wrapped with aluminum foil; 2) test sample, vial light exposed (unwrapped); 3) test sample, vial light exposed (unwrapped) containing the specified non-ionic surfactant. Both control & light exposed samples were kept in a light box for 24 hrs. Light exposure following ICH guideline with following setting for a Atlas SUNTEST CPS+Light Box: Irradiance level=250 watts/square meter; Time set for 24 hours; Total UV dose=538 watt-hours/square meter; Total visible dose=1,320,000 lux-hours.
LC/MS/MS of tryptic MAb peptide map: Samples were digested with trypsin after reduction and alkylation. The resulting peptides were analyzed with a Thermo LTQ-Orbitrap mass spectrometer coupled with an Agilent 1200 capillary HPLC system. HPLC column: Jupiter 5 um C18 250×1.0 mm, flow rate: 70 uL/min, column oven temperature: 55° C. Solvent A: 0.1% TFA in water, B: 0.09% TFA in 90% ACN. Orbitrap setting: MS resolution 60000, MS/MS collected in data dependent mode, using LTQ.
The effect of light, and the protective effect of non-ionic surfactants, on the oxidation of tryptophan residues on an anti-oxidized LDL antibody was determined.

[16] = 0.23 mM (0.02% w/v) polysorbate 20 or 3.6 mM (0.1% w/v) n-octyl-β-D-glucopyranoside, FIG. 6

prevention of shaking-induced loss of percent monomer [1]: effective in preventing loss of monomer
increase in percent oxidized Met256 vs initial sample ([11]; pH 6.0, stored at 5° C. or 40° C. for 2 or 4 weeks): no significant increase
Fenton reagent-induced oxidation of susceptible amino acids (Trp, Met) [12]: inhibited
Compound: CCCCCCCCO[C@@H]1O[C@H](CO)[C@@H](O)[C@H](O)[C@H]1O [n-octyl-β-D-glucopyranoside]
prevention of turbidity development on stirring [2]: effective in preventing turbidity development
inhibition of visible antibody aggregates measured by turbidity formation [3, 16]: effectively inhibited the formation of visible antibody aggregates
inhibition of visible antibody aggregates measured by turbidity formation ([3]; 0.72, 1.8, 3.6, 9 and 18 mM n-octyl-β-D-glucopyranoside, FIG. 4): effectively inhibited the formation of visible antibody aggregates
inhibition of visible antibody aggregates measured by turbidity formation [4]: effectively inhibited the formation of visible antibody aggregates
inhibition of visible antibody aggregates measured by turbidity formation [5]: effectively inhibited the formation of visible antibody aggregates
inhibition of visible antibody aggregates measured by turbidity formation [6]: effectively inhibited the formation of visible antibody aggregates
maintenance of percent monomer upon shaking vs unshaken sample ([7]; 3.6 mM (0.1% w/v), FIG. 10): effectively maintained the percent monomer
maintenance of percent monomer upon shaking vs unshaken sample ([7]; all concentrations tested (0.72-18 mM), FIG. 5): effectively maintained the percent monomer
maintenance of percent monomer upon shaking vs unshaken sample [8]: effectively maintained the percent monomer
maintenance of percent monomer upon shaking vs unshaken sample [9]: effectively maintained the percent monomer
maintenance of percent monomer upon shaking vs unshaken sample [10]: effectively maintained the percent monomer
CMC Value [13]: 18 mM
CMC Value (w/v) [13]: 0.53% w/v

hydrogen peroxide formed in surfactant solution [14]: about 10 μM
percent of Met256 residues oxidized ([11]; pH 6.0, storage at 40° C. for 4 weeks): approximately 16%
percent of Met256 residues oxidized ([11]; pH 6.0, time zero): approximately 2%
% Oxidized Trp33 [15]: 0.6%
% Oxidized Trp92 [15]: 8.9%
Compound: polyoxyethylene sorbitan monolaurate [polysorbate 20, reference compound]
prevention of shaking-induced loss of percent monomer [1]: not effective in preventing shaking-induced loss of monomer
prevention of turbidity development on stirring [2]: effective in preventing turbidity development
inhibition of visible antibody aggregates measured by turbidity formation [3, 16]: effectively inhibited the formation of visible antibody aggregates
inhibition of visible antibody aggregates measured by turbidity formation [4]: effectively inhibited the formation of visible antibody aggregates
inhibition of visible antibody aggregates measured by turbidity formation [5]: effectively inhibited the formation of visible antibody aggregates
inhibition of visible antibody aggregates measured by turbidity formation [6]: effectively inhibited the formation of visible antibody aggregates
